In PubChem BioAssay (NCI):
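Assay format: 96-well plates, 48-hour exposure. Abbreviation: GI50, concentration required for 50% inhibition of growth. TGI denotes the concentration required for complete inhibition of growth.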

Experiments:
Test in all cases: NCI-60 cell line screen, 48 h
CCRF-CEM leukemia = tested on: CCRF-CEM leukemia
DMS 114 small cell lung = tested on: DMS 114 small cell lung
IGROV1 ovarian = tested on: IGROV1 ovarian
OVCAR-4 ovarian = tested on: OVCAR-4 ovarian
HL-60(TB) leukemia = tested on: HL-60(TB) leukemia
SW-620 colon = tested on: SW-620 colon
SN12C renal = tested on: SN12C renal
NCI-H226 lung = tested on: NCI-H226 lung
K-562 leukemia = tested on: K-562 leukemia
SR leukemia = tested on: SR leukemia
RPMI-8226 leukemia = tested on: RPMI-8226 leukemia
SK-MEL-5 melanoma = tested on: SK-MEL-5 melanoma
RXF-631 renal = tested on: RXF-631 renal
UO-31 renal = tested on: UO-31 renal
NCI-H460 lung = tested on: NCI-H460 lung
DMS 273 small cell lung = tested on: DMS 273 small cell lung
XF 498 CNS = tested on: XF 498 CNS
M14 melanoma = tested on: M14 melanoma
TK-10 renal = tested on: TK-10 renal
HOP-62 NSCLC = tested on: HOP-62 NSCLC
CAKI-1 renal = tested on: CAKI-1 renal
SNB-19 CNS = tested on: SNB-19 CNS
M19-MEL melanoma = tested on: M19-MEL melanoma
OVCAR-8 ovarian = tested on: OVCAR-8 ovarian
786-0 renal = tested on: 786-0 renal
HCT-116 colon = tested on: HCT-116 colon
SF-295 CNS = tested on: SF-295 CNS
NCI-H23 lung = tested on: NCI-H23 lung
KM12 colon = tested on: KM12 colon
DLD-1 colon = tested on: DLD-1 colon
KM20L2 colon = tested on: KM20L2 colon
HT29 colon = tested on: HT29 colon
MALME-3M melanoma = tested on: MALME-3M melanoma
UACC-257 melanoma = tested on: UACC-257 melanoma
LXFL 529 NSCLC = tested on: LXFL 529 NSCLC
U251 CNS = tested on: U251 CNS
SNB-75 CNS = tested on: SNB-75 CNS
UACC-62 melanoma = tested on: UACC-62 melanoma
COLO 205 colon = tested on: COLO 205 colon
ACHN renal = tested on: ACHN renal
OVCAR-3 ovarian = tested on: OVCAR-3 ovarian
NCI-H522 lung = tested on: NCI-H522 lung
SK-MEL-2 melanoma = tested on: SK-MEL-2 melanoma
LOX IMVI melanoma = tested on: LOX IMVI melanoma
MOLT-4 leukemia = tested on: MOLT-4 leukemia
RXF 393 renal = tested on: RXF 393 renal
HCT-15 colon = tested on: HCT-15 colon
A498 renal = tested on: A498 renal
A549 NSCLC = tested on: A549 NSCLC
HCC-2998 colon = tested on: HCC-2998 colon
EKVX NSCLC = tested on: EKVX NSCLC
SF-539 CNS = tested on: SF-539 CNS
SK-MEL-28 melanoma = tested on: SK-MEL-28 melanoma
SK-OV-3 ovarian = tested on: SK-OV-3 ovarian
OVCAR-5 ovarian = tested on: OVCAR-5 ovarian
HOP-92 NSCLC = tested on: HOP-92 NSCLC
HOP-18 NSCLC = tested on: HOP-18 NSCLC
SNB-78 CNS = tested on: SNB-78 CNS
SF-268 CNS = tested on: SF-268 CNS

## CS(=O)(=O)NNS(=O)(=O)c1ccc(Cl)cc1
CCRF-CEM leukemia
  TGI: > 100 µM
DMS 114 small cell lung
  TGI: > 100 µM
IGROV1 ovarian
  TGI: > 100 µM
OVCAR-4 ovarian
  TGI: > 100 µM
HL-60(TB) leukemia
  TGI: > 100 µM
SW-620 colon
  TGI: > 100 µM
SN12C renal
  TGI: > 100 µM
NCI-H226 lung
  TGI: 96.3 µM
K-562 leukemia
  TGI: > 100 µM
SR leukemia
  TGI: > 100 µM
RPMI-8226 leukemia
  TGI: > 100 µM
SK-MEL-5 melanoma
  TGI: > 100 µM
RXF-631 renal
  TGI: > 100 µM
UO-31 renal
  TGI: > 100 µM
NCI-H460 lung
  TGI: > 100 µM
DMS 273 small cell lung
  TGI: > 100 µM
XF 498 CNS
  TGI: > 100 µM
M14 melanoma
  TGI: > 100 µM
TK-10 renal
  TGI: > 100 µM
HOP-62 NSCLC
  TGI: > 100 µM
CAKI-1 renal
  TGI: > 100 µM
SNB-19 CNS
  TGI: > 100 µM
M19-MEL melanoma
  TGI: > 100 µM
OVCAR-8 ovarian
  TGI: > 100 µM
786-0 renal
  TGI: > 100 µM
HCT-116 colon
  TGI: > 100 µM
SF-295 CNS
  TGI: > 100 µM
NCI-H23 lung
  TGI: > 100 µM
KM12 colon
  TGI: > 100 µM
DLD-1 colon
  TGI: > 100 µM
KM20L2 colon
  TGI: > 100 µM
HT29 colon
  TGI: > 100 µM
MALME-3M melanoma
  TGI: > 100 µM
UACC-257 melanoma
  TGI: > 100 µM
LXFL 529 NSCLC
  TGI: > 100 µM
U251 CNS
  TGI: > 100 µM
SNB-75 CNS
  TGI: > 100 µM
UACC-62 melanoma
  TGI: > 100 µM
COLO 205 colon
  TGI: > 100 µM
ACHN renal
  TGI: > 100 µM
OVCAR-3 ovarian
  TGI: > 100 µM
NCI-H522 lung
  TGI: > 100 µM
SK-MEL-2 melanoma
  TGI: > 100 µM
LOX IMVI melanoma
  TGI: > 100 µM
MOLT-4 leukemia
  TGI: > 100 µM
RXF 393 renal
  TGI: > 100 µM
HCT-15 colon
  TGI: > 100 µM
A498 renal
  TGI: > 100 µM
A549 NSCLC
  TGI: > 100 µM
HCC-2998 colon
  TGI: > 100 µM
EKVX NSCLC
  TGI: > 100 µM
SF-539 CNS
  TGI: > 100 µM

## COc1cc(C2c3cc4c(cc3[C@@H](OCCN(C)C)C3COC(=O)[C@H]23)OCO4)cc(OC)c1O (some centres not stated)
IGROV1 ovarian
  TGI: 4.97 µM
OVCAR-4 ovarian
  TGI: 6.33 µM
HL-60(TB) leukemia
  TGI: > 100 µM
SW-620 colon
  TGI: 3.59 µM
SN12C renal
  TGI: 0.606 µM
NCI-H226 lung
  TGI: 0.288 µM
K-562 leukemia
  TGI: > 100 µM
SR leukemia
  TGI: 0.0831 µM
SK-MEL-5 melanoma
  TGI: 1.42 µM
RXF-631 renal
  TGI: 1.78 µM
UO-31 renal
  TGI: 2.04 µM
NCI-H460 lung
  TGI: 0.441 µM
DMS 273 small cell lung
  TGI: 0.632 µM
XF 498 CNS
  TGI: 1.74 µM
M14 melanoma
  TGI: 3.22 µM
TK-10 renal
  TGI: 5.49 µM
SK-MEL-28 melanoma
  TGI: 4.1 µM
HOP-62 NSCLC
  TGI: 0.241 µM
CAKI-1 renal
  TGI: 1.33 µM
SNB-19 CNS
  TGI: > 22.3 µM
M19-MEL melanoma
  TGI: 3.17 µM
OVCAR-8 ovarian
  TGI: 2.17 µM
786-0 renal
  TGI: 0.663 µM
HCT-116 colon
  TGI: 7.33 µM
SF-295 CNS
  TGI: 0.998 µM
NCI-H23 lung
  TGI: 1.18 µM
KM12 colon
  TGI: 2.75 µM
DLD-1 colon
  TGI: 5.93 µM
SK-OV-3 ovarian
  TGI: 1.6 µM
KM20L2 colon
  TGI: 5.14 µM
HT29 colon
  TGI: 2.43 µM
MALME-3M melanoma
  TGI: 1.87 µM
UACC-257 melanoma
  TGI: 8.25 µM
LXFL 529 NSCLC
  TGI: 31.7 µM
U251 CNS
  TGI: 1.27 µM
OVCAR-5 ovarian
  TGI: 4.26 µM
HOP-92 NSCLC
  TGI: 1.55 µM
SNB-75 CNS
  TGI: 3.75 µM
UACC-62 melanoma
  TGI: 1.38 µM
COLO 205 colon
  TGI: 16 µM
ACHN renal
  TGI: 0.197 µM
OVCAR-3 ovarian
  TGI: 5.15 µM
NCI-H522 lung
  TGI: 1.7 µM
SK-MEL-2 melanoma
  TGI: 4.03 µM
LOX IMVI melanoma
  TGI: 1.27 µM
HOP-18 NSCLC
  TGI: 4.36 µM
SNB-78 CNS
  TGI: > 100 µM
SF-268 CNS
  TGI: 3.83 µM
MOLT-4 leukemia
  GI50: 0.0105 µM
  TGI: 0.0878 µM
RXF 393 renal
  TGI: 1.97 µM
HCT-15 colon
  TGI: 3.12 µM
A498 renal
  TGI: 0.713 µM
EKVX NSCLC
  TGI: 6.07 µM
SF-539 CNS
  TGI: 0.702 µM
